# How the values were obtained:
# [1] = tested on: normal lymphocytes (NK, T and B cells); experiment: Activation of lymphocyte subsets, flow cytometry (CD69); assay type: cell-based, human
# Method: Normal lymphocytes were treated with RR1 (0-100 μg/ml) for 24 hours at 37° C. in a CO2 incubator. The cells were stained with a panel of cell specific antibodies conjugated with different fluorochromes: CD3-FITC, CD16/56-PE, CD19-ECD, CD69-PC5 or CD8-FITC, CD4-PE, CD3-ECD, CD69-ECD. The stained cells were analyzed in a Coulter Elite flow cytometer in a 4-color assay. ***p<0.001.
# Activation of Lymphocytes. Normal lymphocytes (10^6/ml) were treated with 0-100 μg of RR1 for 24 hours in a CO2 incubator maintained at 37° C. in RPMI medium. The cells were then stained with specific fluorochrome-conjugated monoclonal antibodies for 30 minutes at room temperature and analyzed in a Coulter Elite Flow Cytometer by four and five color immunotyping assay protocol of Alamo and Melnick (Alamo, A. L. and S. J. Melnick Cytometry, 2000, 42:363-370) and the percentage of activation of subsets of lymphocytes such as NK, T and B cells were calculated.
# [2] = tested on: human leukemic cells (CEM); experiment: Cytotoxicity of RR1 treated lymphocytes (functional assay, active caspase-3); assay type: cell-based; details: RR1 0-100 μg/ml, 24 hours, then co-incubation with CEM
# Method: Normal lymphocytes were treated with RR1 (0-100 μg/ml) for 24 hours in RPMI medium. The cells were washed and co-incubated with PKH26-labeled human leukemic CEM cells for 12 hours for the active NK cells to lyse the tumor cells. The cell mixtures were stained with FITC-labeled and activated caspase-3 monoclonal antibody. The percentage of PKH26+ and Caspase-3+ cells were quantified by analyzing in a Beckman-Coulter Elite flow cytometer (**p=0.01).
# Cytotoxicity of RR1 treated lymphocytes. To evaluate the enhanced cytotoxicity of activated lymphocytes, a functional assay was adopted using RR1-activated lymphocytes as effecter cells and human leukemic cells (CEM) as targets (Liu, L. et al. Nat. Med., 2002, 8:185-189; Jerome, K. R. et al. Nat. Med., 2003, 9:4-5). Briefly, normal lymphocytes (10^6/ml) were treated with different concentrations of RR1 in RPMI medium for 24 hours in a CO2 incubator at 37° C. […] The percentage of cells killed by the activated NK cells was determined by fixing the mixture with 1 ml of 2% paraformaldehyde solution for 30 minutes on ice followed by suspending in 0.5% Tween 20 in PBS. The cell mixture was stained with 7.5 μl of anti-active caspase-3-FITC antibody (BD Biosciences, CA) for 30 minutes at room temperature, washed with PBS and analyzed in a Coulter Elite Flow Cytometer.
# [3] = target: T1, CR3 (CD11b) on RAW 264.7 macrophages (Mus musculus, UniProt P05555); experiment: Blocking of CR3 with CD11b mAb, glucan-induced TNF-α synthesis; assay type: cell-based; details: anti-CD11b mAb 5 μg/ml, 37° C.
# T1 construct: endogenous in cells; host or cells: RAW 264.7 mouse macrophages (ATCC)
# Method: Effect Blocking of CR3 with CD11b mAb on opsonised binding. To examine whether the glucan specific receptors CR3 is involved in the opsonised recognition/binding of RR1 on macrophages, monoclonal antibodies (mAbs) specific for CR3 (Rat antimouse CD11b from BD BIOSCIENCES, San Jose, Calif.) were used for blocking the CR3. […] TNF-α released by the macrophages into the medium was analyzed by ELISA kit (BD Biosciences, San Jose, Calif.) (Brown, G. D. et al. J. Expt. Med., 2002, 196:407-412; Brown, G. D. et al. J. Exp. Med., 2003, 197:1119-1124).
# [4] = tested on: TLR2, TLR4 and TLR6 mRNAs in RAW264.7 cells; experiment: TLR mRNA levels, RT-PCR; assay type: cell-based, mouse; details: 0-1000 μg/m RR1, 24 hours
# Method: The cells (1×10^6) were treated with RR1 (0, 10, 100, 500 and 1000 μg/ml) at 37° C. for 24 hours in a CO2 incubator and mRNA amplified with mouse TLR specific primers.
# TLR mRNA and protein levels. TLR2, 4 and 6 mRNA levels were analyzed by RT-PCR using total RNAs extracted from RR1 treated cells. Total RNA was extracted from RR1-treated and untreated RAW 264.7 cells and 0.5 μg/ml RNA was reverse transcribed and amplified using mouse TLR2, 4 and 6 specific PCR primers (R&D SYSTEMS, Minneapolis, Minn.). Mouse GAPDH gene was also amplified as a control. The PCR products were separated on agarose gel.
# [5] = tested on: HEK293 cells transfected with TLR4/CD14/MD2; experiment: TLR signaling, IL-8 ELISA; assay type: cell-based, human; details: HEK/TLR4/CD14/MD2, 24 hours
# Method: (§1) TLR signaling. To determine the involvement of TLR signaling, parental HEK293 as well as HEK293 cells transfected with human TLR2, TLR6, TLR2/6 or TLR4/CD14/MD2 genes (cloned into pDUO plasmid), were used. These cells (0.5×10^6/ml) were incubated with 0-100 μg/ml of RR1 for 24 hours. Since these cells produce very low level of TNF-α and detectable levels of IL-8 upon activation, IL-8 secreted into the medium was analyzed using ELISA procedure. Incidentally, the IL-8 synthesis is also under the control of the transcription factor NF-κB.
# [6] = tested on: HEK293 cells transfected with TLR6; experiment: TLR signaling, IL-8 ELISA; assay type: cell-based, human; details: HEK/TLR6, RR1 0-100 μg/ml, 24 hours
# Method: HEK293/TLR6 cells (1×10^6) were treated with RR1 (0, 10, 50, and 100 μg/ml) at 37° C. for 24 hours and secreted IL-8 in the medium was analyzed by ELISA protocol.
# as §1
# normal lymphocytes = experiment: Oxidative stress (GSH/GSSG levels); assay type: cell-based, human; details: data not shown
# T1 sequence (P05555 17-1153): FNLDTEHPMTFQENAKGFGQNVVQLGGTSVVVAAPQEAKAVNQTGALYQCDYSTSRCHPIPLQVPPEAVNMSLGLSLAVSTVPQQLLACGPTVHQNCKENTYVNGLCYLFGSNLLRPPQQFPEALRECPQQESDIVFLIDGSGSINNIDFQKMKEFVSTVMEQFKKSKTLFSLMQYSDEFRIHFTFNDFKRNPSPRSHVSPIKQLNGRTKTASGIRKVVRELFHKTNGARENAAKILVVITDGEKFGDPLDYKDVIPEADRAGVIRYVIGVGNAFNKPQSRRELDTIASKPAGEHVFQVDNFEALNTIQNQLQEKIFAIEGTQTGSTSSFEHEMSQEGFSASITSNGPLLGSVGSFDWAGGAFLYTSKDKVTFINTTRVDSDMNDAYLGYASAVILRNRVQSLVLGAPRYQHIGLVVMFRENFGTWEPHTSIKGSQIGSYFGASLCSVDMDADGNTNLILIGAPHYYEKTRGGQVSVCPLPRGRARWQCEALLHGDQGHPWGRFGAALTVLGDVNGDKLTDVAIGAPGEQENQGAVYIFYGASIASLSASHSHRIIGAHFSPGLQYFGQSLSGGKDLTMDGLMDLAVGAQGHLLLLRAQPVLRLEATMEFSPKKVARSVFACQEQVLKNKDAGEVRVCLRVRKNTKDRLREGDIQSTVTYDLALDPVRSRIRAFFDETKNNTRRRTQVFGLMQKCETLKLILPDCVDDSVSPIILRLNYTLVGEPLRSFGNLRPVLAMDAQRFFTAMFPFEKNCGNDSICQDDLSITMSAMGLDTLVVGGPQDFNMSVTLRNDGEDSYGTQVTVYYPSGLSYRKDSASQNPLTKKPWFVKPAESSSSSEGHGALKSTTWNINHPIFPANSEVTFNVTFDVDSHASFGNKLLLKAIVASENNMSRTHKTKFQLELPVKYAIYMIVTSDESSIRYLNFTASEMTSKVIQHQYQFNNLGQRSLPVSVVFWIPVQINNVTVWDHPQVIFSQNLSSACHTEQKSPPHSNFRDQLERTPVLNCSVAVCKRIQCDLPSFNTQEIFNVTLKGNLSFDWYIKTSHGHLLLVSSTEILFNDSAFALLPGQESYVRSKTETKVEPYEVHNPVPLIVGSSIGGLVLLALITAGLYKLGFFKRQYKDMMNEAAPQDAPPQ
# T1 sequence (P11835 24-771 partner): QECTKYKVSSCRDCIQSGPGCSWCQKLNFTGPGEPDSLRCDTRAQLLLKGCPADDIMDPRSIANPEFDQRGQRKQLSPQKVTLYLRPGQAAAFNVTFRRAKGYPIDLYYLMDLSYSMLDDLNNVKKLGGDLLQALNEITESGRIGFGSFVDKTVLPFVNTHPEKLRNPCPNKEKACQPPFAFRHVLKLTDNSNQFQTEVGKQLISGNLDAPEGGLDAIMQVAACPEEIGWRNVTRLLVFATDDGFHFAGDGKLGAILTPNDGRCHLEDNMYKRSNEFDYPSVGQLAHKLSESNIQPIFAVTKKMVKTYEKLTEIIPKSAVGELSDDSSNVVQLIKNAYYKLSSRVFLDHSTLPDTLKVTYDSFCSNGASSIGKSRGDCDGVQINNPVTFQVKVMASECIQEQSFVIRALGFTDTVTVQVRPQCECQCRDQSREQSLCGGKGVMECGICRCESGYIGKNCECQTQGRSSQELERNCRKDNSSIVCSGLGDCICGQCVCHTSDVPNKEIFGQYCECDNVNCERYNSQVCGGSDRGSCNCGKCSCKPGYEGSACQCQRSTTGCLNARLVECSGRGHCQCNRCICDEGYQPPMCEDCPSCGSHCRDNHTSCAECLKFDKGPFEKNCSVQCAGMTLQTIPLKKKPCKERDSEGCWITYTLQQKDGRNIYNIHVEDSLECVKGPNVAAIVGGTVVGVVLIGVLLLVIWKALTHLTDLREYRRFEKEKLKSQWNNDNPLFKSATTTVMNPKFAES
substance,measurement,setting,value
"(1,4)-α-D-glucan [RR1]",fold activation of NK cells,[1]; 100 μg/ml RR1,> 3 fold
same,activation of B cells,"[1]; 100 μg/ml RR1, 24 hours",39%
same,activation of NK cells,"[1]; 100 μg/ml RR1, 24 hours",331%
same,activation of T cells,"[1]; 100 μg/ml RR1, 24 hours",102%
same,killing of tumor cells by RR1-treated normal lymphocytes,[2],dose-dependent enhancement of cytotoxicity
same,% reduction of secreted TNF-α,[3]; then glucan 100 μg/ml,4.25 ± 3.66%
same,% reduction of secreted TNF-α,[3]; then glucan 500 μg/ml,1.89 ± 0.50%
same,"mRNA levels of TLR2, 4 and 6",[4],remained similar
same,IL-8 production,[5],did not induce IL-8 production
same,IL-8 production,[6],copious induction of IL-8
same,amount of hydrogen peroxide,normal lymphocytes,No significant elevation
